Laboratory results from patent US9855245B2, “Methods for improving lipid profiles using atrasentan” (AbbVie Inc., priority 2013, dated 2018).
Values joined by “and” are separate entries in the source; they are usually repeats but may differ in a detail not shown here. Equal values may be shown once.

How the values were obtained:
[1] = system: subjects with type 2 diabetes and nephropathy; assay: Example 1: Phase 2b randomized, double-blind, placebo-controlled 12-week clinical study
Description: The primary efficacy endpoint was the change from baseline to Week 12 in log-transformed UACR with the primary analysis conducted using mixed-effects, maximum likelihood, repeated measures (MMRM) with fixed effects for treatment, country, visit, and treatment-by-visit interaction, with baseline measurement and baseline-by-visit interaction as covariates.
All safety analyses were performed on treatment-emergent adverse events only. Treatment-emergent adverse events were defined as those that first occurred or worsened on or after the date of first dose of study drug through 30 days after the last dose of study drug.

[2] = system: subjects with type 2 diabetes and nephropathy; assay: Example 4: combined data of Examples 1 and 2, statin / non-statin sub-populations, total and LDL cholesterol; assay type: in vivo, human; parameters: Total C, Mean Change / LDL, Mean Change: unit not given here
Description: A review of the data obtained from the studies detailed in Examples 1 and 2, above, with respect to total serum cholesterol and serum LDL cholesterol, indicated a meaningful reduction was achieved relative to baseline for both. For example, although the reduction in total serum cholesterol and serum LDL cholesterol for subjects receiving a 0.75 mg dose of atrasentan, after 12 weeks of therapy, varied, the average for both of the studies detailed in Examples 1 and 2 was approximately 14%. As a result, the data obtained from these studies as further reviewed subsequent to collection and a sub-population of subjects in each study was identified as receiving or taking a statin in combination with the atrasentan dose (either a 0.75 mg or 1.25 mg dose). The data relating to the impact of atrasentan on total serum cholesterol and serum LDL cholesterol from each study for this sub-population was combined and a new average (mean) baseline, as well as change relative thereto over the time period of the study, was calculated for each of the total serum cholesterol and serum LDL cholesterol. For purposes of comparison, data relating to the impact of atrasentan on total serum cholesterol and serum LDL cholesterol for each study for subjects that were not receiving or taking a statin was combined and a new average (mean) baseline, as well as change relative thereto over the time period of the study, was also calculated for each of the total serum cholesterol and serum LDL cholesterol.

ETAR = molecular target: T1, ETAR (Homo sapiens, UniProt P25101); assay: Example 6: receptor occupancy data overlaid on edema risk
T1 construct: Instead it rises proportionally across the ETAR receptor occupancy curve
T1 sequence (P25101 21-427): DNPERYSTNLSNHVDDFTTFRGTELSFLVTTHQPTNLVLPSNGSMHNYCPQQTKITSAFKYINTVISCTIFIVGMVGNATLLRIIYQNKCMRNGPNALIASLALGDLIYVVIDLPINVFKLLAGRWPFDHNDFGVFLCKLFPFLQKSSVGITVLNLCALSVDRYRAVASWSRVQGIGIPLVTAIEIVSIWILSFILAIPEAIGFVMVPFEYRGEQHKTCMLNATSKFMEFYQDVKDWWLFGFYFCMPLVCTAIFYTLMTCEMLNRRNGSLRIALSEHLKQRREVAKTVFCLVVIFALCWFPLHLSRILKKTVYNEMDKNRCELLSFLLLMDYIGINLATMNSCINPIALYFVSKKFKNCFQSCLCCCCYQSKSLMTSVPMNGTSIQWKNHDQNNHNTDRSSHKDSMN

[3] = 1.25 mg/day, baseline to final on-treatment measurement
[4] = subjects not receiving statins, 0.75 mg
[5] = subjects receiving statins and 0.75 mg of atrasentan

Q: With CCCCN(CCCC)C(=O)CN1C[C@H](c2ccc3c(c2)OCO3)[C@@H](C(=O)O)[C@@H]1c1ccc(OC)cc1 [Atrasentan, (2R,3R,4S)-4-(1,3-benzodioxol-5-yl)-1-[2-(dibutylamino)-2-oxoethyl]-2-(4-methoxyphenyl)pyrrolidine-3-carboxylic acid] as the compound, how does the “Had ≧30% Reduction in UACR and No Edema (no moderate or severe adverse event of edema)” value ([1]; 1.25 mg/day) read?
A: The value was 28 (45.9) Number (%) of Subjects.

Q: What about the “Hemoglobin, Difference (95% CI) from placebo” value ([1]; 1.25 mg/day) of the same compound?
A: Its value is −0.98 (−1.462, −0.505) g/dL.

Q: What about the “Hemoglobin, Final On-Treatment Visit Mean (SD)” value ([1]; 1.25 mg/day) of the same compound?
A: Its value is 11.79 (1.702) g/dL.

Q: And the “Hemoglobin, LS Mean Change from Baseline (SE)” value ([1]; 1.25 mg/day)?
A: Its value is −1.02 (0.120) g/dL.

Q: What about the “LDL-C, Difference (95% CI) from placebo” value ([1]; 1.25 mg/day) of the same compound?
A: Its value is −13.1 (−23.98, −2.29) mg/dL.

Q: And the “LDL-C, Final On-Treatment Visit Mean (SD)” value ([1]; 1.25 mg/day)?
A: Its value is 69.5 (22.54) mg/dL.

Q: What about the “LDL-C, LS Mean Change from Baseline (SE)” value ([1]; 1.25 mg/day) of the same compound?
A: The value was −11.0 (2.83) mg/dL.

Q: What about the “Percentage of Subjects with ≧30% Reduction in Log-Transformed UACR from Baseline to Final Measurement” value ([1]; 1.25 mg/day) of the same compound?
A: The value was 52.5%.

Q: What about the “Percentage of Subjects with ≧40% Reduction in Log-Transformed UACR from Baseline to Final Measurement” value ([1]; 1.25 mg/day) of the same compound?
A: The value was 36.1%.

Q: And the “Percentage of Subjects with ≧50% Reduction in Log-Transformed UACR from Baseline to Final Measurement” value ([1]; 1.25 mg/day)?
A: Its value is 29.5%.

Q: And the “Triglycerides, Difference (95% CI) from placebo” value ([1]; 1.25 mg/day)?
A: The value was −64.6 (−123.32, −5.97) mg/dL.

Q: And the “Triglycerides, Final On-Treatment Visit Mean (SD)” value ([1]; 1.25 mg/day)?
A: The value was 167.4 (84.98) mg/dL.

Q: What about the “Triglycerides, LS Mean Change from Baseline (SE)” value ([1]; 1.25 mg/day) of the same compound?
A: Its value is −31.4 (15.31) mg/dL.

Q: And the “Weight, Final On-Treatment Visit Mean (SD)” value ([1]; 1.25 mg/day)?
A: Its value is 92.6 (18.74) kg.

Q: What about the “diastolic blood pressure, mean change from baseline to last on-treatment visit” value ([1]; 1.25 mg/day) of the same compound?
A: Its value is −2.74 mmHg.

Q: What about the “fatigue leading to discontinuation” value ([1]; 1.25 mg/day) of the same compound?
A: Its value is 3.1%.

Q: What about the “geometric mean reduction in UACR, baseline to final on-treatment measurement” value ([1]; 1.25 mg/day) of the same compound?
A: Its value is 40.7%.

Q: What about the incidence of anemia ([1]; 1.25 mg/day) of the same compound?
A: The incidence of anemia was 4.7%.

Q: What about the “incidence of peripheral edema” value ([1]; 1.25 mg/day) of the same compound?
A: Its value is 42.2%.

Q: And the “mean diastolic blood pressure, difference from baseline” value ([1]; 1.25 mg/day)?
A: The value was “statistically significant from Weeks 1 through 10”.

Q: What about the “mean increases in weight vs placebo (repeated-measures analysis)” value ([1]; 1.25 mg/day) of the same compound?
A: The value was “statistically significantly different from the mean changes with placebo from Week 1 through Week 8”.

Q: And the “mean systolic blood pressure, difference from baseline” value ([1]; 1.25 mg/day)?
A: Its value is “statistically significant at Weeks 1, 8, and 10”.

Q: What about the “peripheral edema leading to discontinuation” value ([1]; 1.25 mg/day) of the same compound?
A: Its value is 4.7%.

Q: What about the “subjects discontinued because of an adverse event” value ([1]; 1.25 mg/day) of the same compound?
A: Its value is 7 subjects.

Q: What about the “subjects discontinued prematurely from the study” value ([1]; 1.25 mg/day) of the same compound?
A: The value was 15.6%.

Q: What about the “subjects who discontinued study drug because of adverse events” value ([1]; 1.25 mg/day) of the same compound?
A: The value was 10.9%.

Q: What about the “subjects with adverse event infection” value ([1]; 1.25 mg/day) of the same compound?
A: Its value is 0%.

Q: What about the “systolic blood pressure, mean change from baseline to last on-treatment visit” value ([1]; 1.25 mg/day) of the same compound?
A: Its value is −2.98 mmHg.

Q: And the “triglycerides, difference from placebo” value ([1]; 1.25 mg/day)?
A: The value was “statistically significant”.

Q: And the “weight, mean change from baseline to last on-treatment visit” value ([1]; 1.25 mg/day)?
A: The value was 2.02 kg.

Q: What about the “UACR Between-group Comparison Difference (90% CI)” value ([1]; 1.25 mg/day vs placebo) of the same compound?
A: The value was −0.51 (−0.75, −0.28).

Q: What about the “mean ambulatory systolic blood pressure, difference from placebo” value ([1]; 1.25 mg/day, Week 6) of the same compound?
A: Its value is “statistically significant difference”.

Q: What about the “Weight, LS Mean Change from Baseline (SE)” value ([1]; 1.25 mg/day, Week 12) of the same compound?
A: The value was 0.6 kg and 0.6 (0.66) kg.

Q: What about the “UACR Change from Baseline LS Mean (SE)” value [1, 3] of the same compound?
A: Its value is −0.52 (0.11) log mg/g creatinine.

Q: What about the “UACR Geometric Mean Change (Percent)” value [1, 3] of the same compound?
A: Its value is −40.67%.

Q: What about the “mean HDL-C change” value ([1]; all treatment groups, change not clinically meaningful) of the same compound?
A: The value was “decreased slightly”.

Q: What about the “hemoglobin relative to placebo” value ([1]; both atrasentan groups, at Week 2 and throughout the study) of the same compound?
A: Its value is “Statistically significantly mean decreases”.

Q: And the “reduction in total serum cholesterol and serum LDL cholesterol relative to baseline, average for both studies (Examples 1 and 2)” value ([2]; 0.75 mg dose, after 12 weeks of therapy)?
A: Its value is “approximately 14%”.

Q: And the “LDL, % Change” value ([2]; Non-Statin, 0.75 mg)?
A: Its value is −13.1%.

Q: What about the “LDL, Mean Change” value ([2]; Non-Statin, 0.75 mg) of the same compound?
A: The value was −13.4.

Q: And the “Total C, % Change” value ([2]; Non-Statin, 0.75 mg)?
A: The value was −9.3%.

Q: And the “Total C, Mean Change” value ([2]; Non-Statin, 0.75 mg)?
A: The value was −14.9.

Q: And the “LDL, % Change” value ([2]; Non-Statin, 1.25 mg)?
A: The value was −18.8%.

Q: What about the “LDL, Mean Change” value ([2]; Non-Statin, 1.25 mg) of the same compound?
A: The value was −21.0.

Q: And the “Total C, % Change” value ([2]; Non-Statin, 1.25 mg)?
A: Its value is −12.8%.

Q: What about the “Total C, Mean Change” value ([2]; Non-Statin, 1.25 mg) of the same compound?
A: The value was −18.4.

Q: And the “LDL, % Change” value ([2]; Statin sub-population, 0.75 mg)?
A: The value was −15.4%.

Q: What about the “LDL, Mean Change” value ([2]; Statin sub-population, 0.75 mg) of the same compound?
A: The value was −12.8.

Q: What about the “Total C, % Change” value ([2]; Statin sub-population, 0.75 mg) of the same compound?
A: The value was −10.4%.

Q: What about the “Total C, Mean Change” value ([2]; Statin sub-population, 0.75 mg) of the same compound?
A: The value was −17.1.

Q: What about the “LDL, % Change” value ([2]; Statin sub-population, 1.25 mg) of the same compound?
A: The value was −14.2%.

Q: And the “LDL, Mean Change” value ([2]; Statin sub-population, 1.25 mg)?
A: The value was −11.6.

Q: And the “Total C, % Change” value ([2]; Statin sub-population, 1.25 mg)?
A: The value was −10.4%.

Q: And the “Total C, Mean Change” value ([2]; Statin sub-population, 1.25 mg)?
A: Its value is −17.1.

Q: What about the “reduction in LDL cholesterol” value [2, 4] of the same compound?
A: The value was 13%.

Q: What about the “reduction in total cholesterol” value [2, 4] of the same compound?
A: The value was 9%.

Q: What about the “reduction in LDL cholesterol” value [2, 5] of the same compound?
A: Its value is 15%.

Q: What about the “reduction in total cholesterol” value [2, 5] of the same compound?
A: The value was 10%.

Q: And the “Receptor Occupancy” value (ETAR; Dose 0.25 mg)?
A: The value was 25%.

Q: And the “Receptor Occupancy” value (ETAR; Dose 0.75 mg)?
A: The value was 47%.

Q: And the “Receptor Occupancy” value (ETAR; Dose 1.75 mg)?
A: The value was 67%.
